Results from ChEMBL document CHEMBL1201862, “PubChem BioAssay data set” (2004).
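Dose response: 5 concentrations. Exposure: 48 h. Format: 96-well plates. Endpoint: linear interpolation; highest concentration if not reached. Abbreviation: GI50, concentration required for 50% inhibition of growth.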 Activity calls are given as the source filed them. Cut-off read from the data, not from the text of the source: active = GI50 up to about 1.1 µM and inactive = higher. Where a SMILES comes first, the peptide text is derived from it. [ ]: non-standard residue; d: D form. The star is where a group is joined. ξ: configuration not given here. ξPhe(4-NO2) = NC(Cc1ccc([N+](=O)[O-])cc1)C(=O)O; Boc = CC(C)(C)OC(=O)*; OBn = c1ccc(CO*)cc1

Experiments:
Assay in all cases: inhibition of tumour cell growth, NCI panel, 48 h
BT-549 = system: BT-549
MDA-MB-435 = system: MDA-MB-435
EKVX = system: EKVX
SW-620 = system: SW-620
HCC 2998 = system: HCC 2998
SF-295 = system: SF-295
OVCAR-8 = system: OVCAR-8
COLO 205 = system: COLO 205
CAKI-1 = system: CAKI-1
HL-60 = system: HL-60
LOX IMVI = system: LOX IMVI
DU-145 = system: DU-145
SK-OV-3 = system: SK-OV-3
SF-539 = system: SF-539
HOP-62 = system: HOP-62
NCI-H226 = system: NCI-H226
PC-3 = system: PC-3
KM12 = system: KM12
Hs-578T = system: Hs-578T
U-251 = system: U-251

SMILES	GI50 (BT-549)	GI50 (MDA-MB-435)	GI50 (EKVX)	GI50 (SW-620)	GI50 (HCC 2998)	GI50 (SF-295)	GI50 (OVCAR-8)	GI50 (COLO 205)	GI50 (CAKI-1)	GI50 (HL-60)	GI50 (LOX IMVI)	GI50 (DU-145)	GI50 (SK-OV-3)	GI50 (SF-539)	GI50 (HOP-62)	GI50 (NCI-H226)	GI50 (PC-3)	GI50 (KM12)	GI50 (Hs-578T)	GI50 (U-251)
COc1cc2c(c(OC)c1OC)-c1c(cc3c(c1OC)OCO3)CC(C)C(C)(O)C2OC(=O)c1ccccc1 (centres undefined)	56.1 µM (inactive)	55 µM (inactive)	36 µM (inactive)	71.8 µM (inactive)	22.9 µM (inactive)	39.4 µM (inactive)	40.6 µM (inactive)	22.5 µM (inactive)	33 µM (inactive)	19.5 µM (inactive)	31.2 µM (inactive)	69.8 µM (inactive)	60.4 µM (inactive)	> 100 µM (inactive)	> 100 µM (inactive)	29.4 µM (inactive)	26.6 µM (inactive)	41.1 µM (inactive)	32.5 µM (inactive)	39.9 µM (inactive)
COc1ccc2nc3cc(Cl)ccc3c(NCCCCCC(=O)NC(COc3cnc4c(ccc5cccnc54)c3)COc3cnc4c(ccc5cccnc54)c3)c2c1	10.5 µM (inactive)	18.5 µM (inactive)	22.8 µM (inactive)	10.5 µM (inactive)	12.6 µM (inactive)	20.8 µM (inactive)	31.4 µM (inactive)	2.79 µM (inactive)	36.1 µM (inactive)	3.44 µM (inactive)	3.72 µM (inactive)	11.3 µM (inactive)	21.9 µM (inactive)	10.9 µM (inactive)	15.7 µM (inactive)	4.73 µM (inactive)	13.9 µM (inactive)	5.92 µM (inactive)	50.8 µM (inactive)	8.53 µM (inactive)
O=C1Nc2ccccc2/C1=C/c1c(Cl)[nH]c2ccc(O)cc12	4.84 µM (inactive)	0.214 µM (active)	3.28 µM (inactive)	1.18 µM (inactive)	11.7 µM (inactive)	2.79 µM (inactive)	2.93 µM (inactive)	2.07 µM (inactive)	3.74 µM (inactive)	0.836 µM (active)	2.75 µM (inactive)	1.78 µM (inactive)	1.71 µM (inactive)	0.544 µM (active)	2.59 µM (inactive)	1.08 µM (active)	2.32 µM (inactive)	1.37 µM (inactive)	3.99 µM (inactive)	1.33 µM (inactive)
NC1CCCCC1NCCNC1CCCCC1N (centres undefined)	> 100 µM (inactive)	> 100 µM (inactive)	> 100 µM (inactive)	41.6 µM (inactive)	32.8 µM (inactive)	> 100 µM (inactive)	> 100 µM (inactive)	15.9 µM (inactive)	82.4 µM (inactive)	> 100 µM (inactive)	86.5 µM (inactive)	> 100 µM (inactive)	> 100 µM (inactive)	> 100 µM (inactive)	53.7 µM (inactive)	> 100 µM (inactive)	> 100 µM (inactive)	> 100 µM (inactive)	44.7 µM (inactive)	30.5 µM (inactive)
OCC1OC(O[C@H]2CN3[C@H](O)[C@@H](O)[C@H](O)[C@H]3C2O)C(O)C(O)C1O (some centres undefined)	> 100 µM (inactive)	> 100 µM (inactive)	> 100 µM (inactive)	> 100 µM (inactive)	> 100 µM (inactive)	> 100 µM (inactive)	> 100 µM (inactive)	> 100 µM (inactive)	> 100 µM (inactive)	> 100 µM (inactive)	> 100 µM (inactive)	> 100 µM (inactive)	> 100 µM (inactive)	> 100 µM (inactive)	> 100 µM (inactive)	> 100 µM (inactive)	> 100 µM (inactive)	> 100 µM (inactive)	> 100 µM (inactive)	> 100 µM (inactive)
CC(C)Cc1ccc(C(C)/C=C2\CCC(CN3CCCCC3)C2=O)cc1 (centres undefined)	18.5 µM (inactive)	13.6 µM (inactive)	13.6 µM (inactive)	3.45 µM (inactive)	6.37 µM (inactive)	13.3 µM (inactive)	5.18 µM (inactive)	5.81 µM (inactive)	6.87 µM (inactive)	1.12 µM (inactive)	2.01 µM (inactive)	16.2 µM (inactive)	20.5 µM (inactive)	4.54 µM (inactive)	8.69 µM (inactive)	14.7 µM (inactive)	6.31 µM (inactive)	2.56 µM (inactive)	4.71 µM (inactive)	2.14 µM (inactive)
CC(=O)C1(c2ccccc2)CCN(Cn2sc3nc(C)cc(C)c3c2=O)CC1	38.8 µM (inactive)	23.1 µM (inactive)	23.3 µM (inactive)	24.4 µM (inactive)	25 µM (inactive)	> 100 µM (inactive)	27.4 µM (inactive)	17.6 µM (inactive)	35.9 µM (inactive)	18.7 µM (inactive)	23.8 µM (inactive)	31.4 µM (inactive)	76.4 µM (inactive)	22.5 µM (inactive)	34.8 µM (inactive)	97.5 µM (inactive)	37.6 µM (inactive)	> 100 µM (inactive)	30.4 µM (inactive)	42.3 µM (inactive)
COc1cc([C@H]2c3cc(O)c(OC)cc3C[C@]3(O)[C@@H]2CO[C@@H]3O)ccc1O	> 100 µM (inactive)	> 100 µM (inactive)	> 100 µM (inactive)	> 100 µM (inactive)	> 100 µM (inactive)	> 100 µM (inactive)	> 100 µM (inactive)	> 100 µM (inactive)	> 100 µM (inactive)	> 100 µM (inactive)	> 100 µM (inactive)	> 100 µM (inactive)	> 100 µM (inactive)	> 100 µM (inactive)	> 100 µM (inactive)	> 100 µM (inactive)	> 100 µM (inactive)	> 100 µM (inactive)	> 100 µM (inactive)	> 100 µM (inactive)
Nc1nc(Cl)cc(NCC2(CO)CC(OCc3ccccc3)C2)n1 (centres undefined)	35.9 µM (inactive)	43.6 µM (inactive)	7.82 µM (inactive)	> 100 µM (inactive)	> 100 µM (inactive)	> 100 µM (inactive)	71.6 µM (inactive)	> 100 µM (inactive)	> 100 µM (inactive)	27.3 µM (inactive)	23.2 µM (inactive)	> 100 µM (inactive)	> 100 µM (inactive)	> 100 µM (inactive)	68.4 µM (inactive)	25.6 µM (inactive)	> 100 µM (inactive)	> 100 µM (inactive)	> 100 µM (inactive)	90.4 µM (inactive)
C=C(C(=O)O[C@H]1C/C(C)=C/CC/C(CO)=C/[C@H]2C(=O)OC(=C)[C@H]12)C(O)CO (some centres undefined)	14.4 µM (inactive)	9.59 µM (inactive)	17.3 µM (inactive)	3.71 µM (inactive)	16.4 µM (inactive)	26.1 µM (inactive)	15.2 µM (inactive)	3.37 µM (inactive)	4.46 µM (inactive)	2.49 µM (inactive)	16.3 µM (inactive)	17.3 µM (inactive)	18.5 µM (inactive)	4.71 µM (inactive)	24.5 µM (inactive)	17.9 µM (inactive)	9.77 µM (inactive)	20.4 µM (inactive)	23.5 µM (inactive)	12.1 µM (inactive)
Cc1ccc2c(O)cc(-c3ccc(C)s3)nc2n1	0.804 µM (active)	0.0264 µM (active)	2.95 µM (inactive)	0.106 µM (active)	0.805 µM (active)	0.267 µM (active)	0.652 µM (active)	0.459 µM (active)	0.811 µM (active)	0.0775 µM (active)	0.472 µM (active)	0.993 µM (active)	0.746 µM (active)	0.325 µM (active)	1.07 µM (active)	0.357 µM (active)	0.234 µM (active)	0.0912 µM (active)	0.297 µM (active)	0.413 µM (active)
CCc1nc(N)nc(N)c1-c1ccc(Cl)c([N+](=O)[O-])c1	31.2 µM (inactive)	0.0752 µM (active)	3.38 µM (inactive)	0.0475 µM (active)	2.95 µM (inactive)	0.0637 µM (active)	0.074 µM (active)	6.71 µM (inactive)	0.242 µM (active)	0.053 µM (active)	0.0524 µM (active)	0.611 µM (active)	11.2 µM (inactive)	0.325 µM (active)	0.596 µM (active)	18.2 µM (inactive)	0.0897 µM (active)	0.535 µM (active)	28.1 µM (inactive)	0.126 µM (active)
CC(C)(C)OC(=O)NC(Cc1ccc([N+](=O)[O-])cc1)C(=O)NCC(=O)OCc1ccccc1 (centres undefined) (Boc-[ξPhe(4-NO2)]-Gly-OBn)	25.7 µM (inactive)	16.9 µM (inactive)	> 100 µM (inactive)	29.6 µM (inactive)	19.6 µM (inactive)	20.5 µM (inactive)	22.2 µM (inactive)	17.1 µM (inactive)	13.1 µM (inactive)	36.1 µM (inactive)	14.1 µM (inactive)	30.1 µM (inactive)	24.6 µM (inactive)	–	17.3 µM (inactive)	26.7 µM (inactive)	17.2 µM (inactive)	31.4 µM (inactive)	22.3 µM (inactive)	20.7 µM (inactive)
